Data published in patent US4282244A, “Optical isomers of 4-amino-N-(1-cyclohexyl-3-pyrrolidinyl)-N-methylbenzamide” (A. H. Robins Company, Inc., priority 1980, dated 1981).
Where a name gives a salt, the structure may show the parent alone.

Legend:
[1] = acute toxicity (LD50), rat; assay type: in vivo; conditions: in vivo, fumarate salt, expressed as free base, read-out: LD50 (95% Confidence Limits)
Procedure: (§1) The acute toxicities of the ±-racemate, the (+)-isomer and the (-)-isomer were conducted with the fumarate salts and probit analysis (Finney, D. J., Statistical Methods in Biological Assay, Hafner Pub. Co., N.Y., 2nd. Ed., 1964) was employed for the statistical treatment of the mortality data.

[2] = acute toxicity (LD50), mouse; assay type: in vivo; conditions: in vivo, fumarate salt, expressed as free base, read-out: LD50 (95% Confidence Limits)
Procedure: as §1

catalepsy = assay: cataleptic effects (Tedeschi et al.); assay type: in vivo, rat
Description: (§2) The procedure used for determing cataleptic effects of the fumarate salts was based on that of Tedeschi et al., Arch. Int. Pharmacodyn.

[3] = cataleptic effects (Tedeschi et al.); assay type: in vivo, rat; conditions: in vivo, rat, expressed as free base; for TD50: footnote c, read-out: Neurotoxic dose level evidenced by seizures in test animals; for NOAEL: fumarate salt
Description: as §2

[4] = test system: Chlorpromazine-Induced Catalepsy; assay: Effects on Chlorpromazine-Induced Catalepsy; assay type: in vivo, rat; conditions: Chlorpromazine 4 mg/kg IP, then saline IP after one hour
Procedure: (§3) (+)-4-Amino-N-(1-cyclohexyl-3-pyrrolidinyl)-N-methylbenzamide is useful in reducing the cataleptic side effects of known therapeutically effective drugs such as chlorpromazine [2-chloro-10-(3-dimethylaminopropyl)phenothiazine] and metoclopramide (N-diethylaminoethyl 2-methoxy-4-amino-5-chlorophenylcarboxamide). The effectiveness is shown in Tables IV and V. In each test the rat was administered a 100% effective cataleptic dose of the test drug followed one hour later by an effective dose of (+)-4-amino-N-(1-cyclohexyl-3-pyrrolidinyl)-N-methylbenzamide.

[5] = test system: Metoclopramide-Induced Catalepsy; assay: Effects on Metoclopramide-Induced Catalepsy; assay type: in vivo, rat; conditions: Metoclopramide 40 mg/kg IP, then saline IP after one hour
Procedure: as §3

CN(C(=O)c1ccc(N)cc1)C1CCN(C2CCCCC2)C1 (racemic) [± racemate, 4-amino-N-(1-cyclohexyl-3-pyrrolidinyl)-N-methylbenzamide]
LD50 ([1]; ip, I.P.): 111 mg/kg | LD50 ([1]; po, P.O.): 305 mg/kg | LD50 ([2]; ip, I.P.): 90.2 mg/kg | LD50 ([2]; po, P.O.): 181 mg/kg | cataleptic properties (catalepsy): notable absence of cataleptic properties | TD50 ([3]; IP): 100 mg/kg | NOAEL ([3]; IP): 100 mg/kg | NOAEL ([3]; PO): 200 mg/kg

CN(C(=O)c1ccc(N)cc1)C1CCN(C2CCCCC2)C1 (single isomer, unassigned; (-)) [(-)-isomer, (-)-4-Amino-N-(1-cyclohexyl-3-pyrrolidinyl)-N-methyl benzamide Fumarate]
LD50 ([1]; ip, I.P.): 116 mg/kg | LD50 ([1]; po, P.O.): 410 mg/kg | LD50 ([2]; ip, I.P.): 103 mg/kg | LD50 ([2]; po, P.O.): 241 mg/kg | TD50 ([3]; IP): 100 mg/kg

CN(C)CCCN1c2ccccc2Sc2ccc(Cl)cc21 [Chlorpromazine, 2-chloro-10-(3-dimethylaminopropyl)phenothiazine, reference compound]
Percent of Rats Cataleptic ([4]; 0.5 h after initial treatment): 100% | Percent of Rats Cataleptic ([4]; 1.0 h after initial treatment): 100% | Percent of Rats Cataleptic ([4]; 1.5 h after initial treatment): 100% | Percent of Rats Cataleptic ([4]; 2.0 h after initial treatment): 100% | Percent of Rats Cataleptic ([4]; 3.0 h after initial treatment): 100% | Percent of Rats Cataleptic ([4]; 4.0 h after initial treatment): 100% | Percent of Rats Cataleptic ([4]; 5.0 h after initial treatment): 100% | Percent of Rats Cataleptic ([4]; 6.0 h after initial treatment): 100%

CCN(CC)CCNC(=O)c1cc(Cl)c(N)cc1OC [Metoclopramide, N-diethylaminoethyl 2-methoxy-4-amino-5-chlorophenylcarboxamide, reference compound]
Percent of Rats Cataleptic ([5]; 0.5 h after initial treatment): 100% | Percent of Rats Cataleptic ([5]; 1.0 h after initial treatment): 100% | Percent of Rats Cataleptic ([5]; 1.5 h after initial treatment): 100% | Percent of Rats Cataleptic ([5]; 2.0 h after initial treatment): 100% | Percent of Rats Cataleptic ([5]; 3.0 h after initial treatment): 100% | Percent of Rats Cataleptic ([5]; 4.0 h after initial treatment): 100% | Percent of Rats Cataleptic ([5]; 5.0 h after initial treatment): 100% | Percent of Rats Cataleptic ([5]; 6.0 h after initial treatment): 100%
